# Results reported in patent US9902696B2, “1,4-substituted piperidine derivatives” (Cephalon, Inc., priority 2015, dated 2018).
# pIC50: −log10 of the molar value.
# Target: T1, recombinant human baculovirus-expressed GST-tagged FASN (Homo sapiens, UniProt P49327)
# T1 construct: GST
# Experiment: FASN enzyme activity assay, fluorescence-based detection of CoA with CPM
# Assay type: biochemical
# Settings: 5 nM FASN, 150 μM NADPH, 10 μM acetyl-CoA, 25 μM malonyl-CoA, 90 minutes incubation; read-out: IC50 data for Compounds of Formulae I-V/V(a): Activity
# Text: FASN Enzyme activity may be determined by detecting coenzyme A (CoA), a product of FASN-catalyzed synthesis of palmitate from acetyl-CoA and malonyl-CoA with NADPH as a cofactor. The assay is fluorescence-based and measures the interaction of free CoA with 7-diethylamino-3-(4′-malemimidylphenyl)-4-methylcoumarin (CPM; Life Technologies, CA) as described in Chung et al (2008). The coumarin derivative CPM contains a thiol-reactive maleimide that becomes fluorescent upon interaction with the sulfhydryl group of CoA.
# For the example compounds described herein, the reaction was performed in 384-well low volume non-binding plates (Corning, N.Y.) using recombinant human baculovirus-expressed GST-tagged FASN. The 20-μL assay mixture contained 50 mM HEPES (pH 7.5), 5 nM FASN, 150 μM NADPH (Sigma, St. Louis, Mo.), 10 μM acetyl-CoA (Sigma), 25 μM malonyl-CoA (Sigma) and test compound [diluted in dimethyl sulfoxide (DMSO); 0.5% DMSO final in assay after 100 nL addition]. See, Chung et al.; “A fluorescence-based thiol quantification assay for ultra-high-throughput screening for inhibitors of coenzyme A production,” Assay Drug Dev Tech 2008; 6:361-374.
# The reaction was initiated by adding malonyl-CoA, followed by incubation for 90 minutes at […]. A stock solution of the CPM reagent was prepared in DMSO at […] and stored at […]. To detect CoA produced in the FASN reaction, the CPM stock was diluted to […] in 70% ethanol and added at 4 μL/well to the assay plate. The reaction mixture was then incubated for 30 minutes. Fluorescence was measured using the EnVision™ 2102 multi-label plate reader (PerkinElmer, Waltham, Mass.) utilizing a general dual mirror, a 390 nm excitation filter and a 530 nm emission filter. Data analysis was performed using ActivityBase (IDBS, Guilford, UK). IC50 values were calculated by plotting the percent inhibition versus log 10 of the concentration of the compound, and fitting to the nonlinear regression sigmoidal dose-response (variable slope) equation in XLFit (IDBS).
# T1 sequence (P49327 whole entry): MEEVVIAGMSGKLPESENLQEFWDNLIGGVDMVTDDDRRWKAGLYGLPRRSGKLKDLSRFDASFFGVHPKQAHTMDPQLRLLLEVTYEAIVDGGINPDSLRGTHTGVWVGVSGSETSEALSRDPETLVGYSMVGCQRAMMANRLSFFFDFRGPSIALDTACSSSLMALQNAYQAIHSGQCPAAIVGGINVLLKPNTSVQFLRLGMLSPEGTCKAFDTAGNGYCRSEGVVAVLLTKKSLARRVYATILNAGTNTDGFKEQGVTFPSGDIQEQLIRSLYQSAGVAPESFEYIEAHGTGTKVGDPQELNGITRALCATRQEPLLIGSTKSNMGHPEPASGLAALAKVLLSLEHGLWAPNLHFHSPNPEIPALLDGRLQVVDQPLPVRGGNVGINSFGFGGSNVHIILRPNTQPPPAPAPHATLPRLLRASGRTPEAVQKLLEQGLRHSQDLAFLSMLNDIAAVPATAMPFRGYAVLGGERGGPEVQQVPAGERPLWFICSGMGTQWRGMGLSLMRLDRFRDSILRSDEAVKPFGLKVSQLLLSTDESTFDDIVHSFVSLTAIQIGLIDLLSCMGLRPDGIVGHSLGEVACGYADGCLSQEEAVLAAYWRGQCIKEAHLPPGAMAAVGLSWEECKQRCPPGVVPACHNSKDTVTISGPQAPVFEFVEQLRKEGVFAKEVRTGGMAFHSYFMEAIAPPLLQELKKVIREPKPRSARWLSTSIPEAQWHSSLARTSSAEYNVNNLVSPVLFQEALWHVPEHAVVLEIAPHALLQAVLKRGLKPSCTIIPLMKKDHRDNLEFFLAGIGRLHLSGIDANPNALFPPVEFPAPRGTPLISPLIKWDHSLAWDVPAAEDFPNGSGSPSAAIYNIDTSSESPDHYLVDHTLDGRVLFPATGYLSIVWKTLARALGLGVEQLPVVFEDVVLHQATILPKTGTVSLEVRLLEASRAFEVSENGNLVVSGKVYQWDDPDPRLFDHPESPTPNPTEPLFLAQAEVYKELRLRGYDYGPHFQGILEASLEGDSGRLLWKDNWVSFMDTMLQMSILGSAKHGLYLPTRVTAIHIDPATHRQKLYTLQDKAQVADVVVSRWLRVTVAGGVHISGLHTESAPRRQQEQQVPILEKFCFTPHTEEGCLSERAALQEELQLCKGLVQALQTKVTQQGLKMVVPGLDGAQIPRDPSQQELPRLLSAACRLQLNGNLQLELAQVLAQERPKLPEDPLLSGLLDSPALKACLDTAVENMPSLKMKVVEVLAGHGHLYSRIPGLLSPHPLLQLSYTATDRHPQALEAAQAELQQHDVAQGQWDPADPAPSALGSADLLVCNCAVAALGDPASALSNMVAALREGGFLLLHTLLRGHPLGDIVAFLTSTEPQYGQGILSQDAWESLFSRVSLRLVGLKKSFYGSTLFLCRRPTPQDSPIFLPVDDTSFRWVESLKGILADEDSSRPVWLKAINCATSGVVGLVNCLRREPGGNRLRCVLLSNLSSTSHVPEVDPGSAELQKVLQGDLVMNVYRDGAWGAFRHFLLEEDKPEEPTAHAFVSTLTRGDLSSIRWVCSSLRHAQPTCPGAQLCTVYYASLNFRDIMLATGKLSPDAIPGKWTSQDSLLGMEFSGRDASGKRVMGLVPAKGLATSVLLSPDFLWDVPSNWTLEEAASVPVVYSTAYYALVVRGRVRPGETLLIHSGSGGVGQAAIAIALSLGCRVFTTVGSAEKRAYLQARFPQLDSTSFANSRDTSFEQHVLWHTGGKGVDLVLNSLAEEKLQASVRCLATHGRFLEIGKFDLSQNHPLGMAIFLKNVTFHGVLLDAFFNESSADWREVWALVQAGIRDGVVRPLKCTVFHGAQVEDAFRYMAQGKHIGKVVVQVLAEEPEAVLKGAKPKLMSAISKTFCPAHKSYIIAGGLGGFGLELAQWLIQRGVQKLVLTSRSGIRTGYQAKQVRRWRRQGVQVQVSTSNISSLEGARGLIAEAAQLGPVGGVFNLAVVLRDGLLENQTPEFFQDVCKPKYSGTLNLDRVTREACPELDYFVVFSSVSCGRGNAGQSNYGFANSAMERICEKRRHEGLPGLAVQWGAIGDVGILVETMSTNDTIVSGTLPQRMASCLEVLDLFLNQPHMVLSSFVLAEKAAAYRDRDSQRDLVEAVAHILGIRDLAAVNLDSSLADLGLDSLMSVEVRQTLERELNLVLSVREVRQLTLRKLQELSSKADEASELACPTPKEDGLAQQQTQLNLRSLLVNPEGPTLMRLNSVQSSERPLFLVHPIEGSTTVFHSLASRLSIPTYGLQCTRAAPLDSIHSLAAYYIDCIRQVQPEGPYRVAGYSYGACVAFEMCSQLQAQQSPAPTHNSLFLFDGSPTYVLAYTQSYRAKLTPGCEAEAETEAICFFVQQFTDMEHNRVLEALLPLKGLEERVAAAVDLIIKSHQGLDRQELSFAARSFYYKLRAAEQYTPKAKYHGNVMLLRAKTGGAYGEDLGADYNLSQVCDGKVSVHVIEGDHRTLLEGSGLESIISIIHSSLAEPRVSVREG
row,pIC50,Structure (SMILES)
1,5.00 to 6.00,"O=C(C1CC1)N1CCC(Oc2ccc(-c3cc4ccccc4nc3Cl)cc2)CC1 [Example 17, {4-[4-(2-Chloroquinolin-3-yl)-phenoxy]-piperidin-1-yl}-cyclopropyl-methanone]"
2,6.00 to 7.00,"CCC(=O)N1CCC(Oc2ccc(-c3cc4ccccc4nc3OC)cc2)CC1 [Example 18, 1-{4-[4-(2-Methoxyquinolin-3-yl)-phenoxy]-piperidin-1-yl}-propan-1-one]"
3,5.00 to 6.00,"O=C(C1CC1)N1CCC(Oc2ccc(-c3cnc4c(c3)CCCC4)cc2)CC1 [Example 19, Cyclopropyl-{4-[4-(5,6,7,8-tetrahydro-quinolin-3-yl)-phenoxy]-piperidin-1-yl}-methanone]"
4,5.00 to 6.00,"O=C(C1CCC1)N1CCC(Oc2ccc(-c3cnc4c(c3)CCCC4)cc2)CC1 [Example 20, Cyclobutyl-{4-[4-(5,6,7,8-tetrahydroquinolin-3-yl)-phenoxy]-piperidin-1-yl}-methanone]"
5,5.00 to 6.00,"CCC(=O)N1CCC(Oc2ccc(-c3cnc4c(c3)CCCC4)cc2)CC1 [Example 21, 1-{4-[4-(5,6,7,8-Tetrahydroquinolin-3-yl)-phenoxy]-piperidin-1-yl}-propan-1-one]"
6,7.00 to 9.00,CCC(=O)N1CCC(Oc2ccc(-c3ccc4cccnc4c3F)cc2)CC1 [Example 22]
7,7.00 to 9.00,"O=C(C1CC1)N1CCC(Oc2ccc(-c3ccc4cccnc4c3F)cc2)CC1 [Example 23, Cyclopropyl-{4-[4-(8-fluoroquinolin-7-yl)-phenoxy]-piperidin-1-yl}-methanone]"
8,7.00 to 9.00,"O=C(C1CCC1)N1CCC(Oc2ccc(-c3ccc4cccnc4c3F)cc2)CC1 [Example 24, Cyclobutyl-{4-[4-(8-fluoroquinolin-7-yl)-phenoxy]-piperidin-1-yl}-methanone]"
9,5.00 to 6.00,"CCC(=O)N1CCC(Oc2ccc(-c3ccc4ccc(C)nc4c3F)cc2)CC1 [Example 25, 1-{4-[4-(8-Fluoro-2-methylquinolin-7-yl)-phenoxy]-piperidin-1-yl}-propan-1-one]"
10,5.00 to 6.00,"Cc1ccc2ccc(-c3ccc(OC4CCN(C(=O)C5CC5)CC4)cc3)c(F)c2n1 [Example 26, Cyclopropyl-{4-[4-(8-fluoro-2-methylquinolin-7-yl)-phenoxy]-piperidin-1-yl}-methanone]"
11,5.00 to 6.00,"Cc1ccc2ccc(-c3ccc(OC4CCN(C(=O)C5CCC5)CC4)cc3)c(F)c2n1 [Example 27, Cyclobutyl-{4-[4-(8-fluoro-2-methylquinolin-7-yl)-phenoxy]-piperidin-1-yl}-methanone]"
12,7.00 to 9.00,"O=C([C@H]1CCCO1)N1CCC(Oc2ccc(-c3cnc4cccc(F)c4c3)cc2)CC1 [Example 28, {4-[4-(5-Fluoroquinolin-3-yl)-phenoxy]-piperidin-1-yl}-(R)-tetrahydrofuran-2-yl-methanone]"
13,7.00 to 9.00,"CCC(=O)N1CCC(Oc2ccc(-c3cnc4cccc(F)c4c3)cc2)CC1 [Example 29, 1-{4-[4-(5-Fluoroquinolin-3-yl)-phenoxy]-piperidin-1-yl}-propan-1-one]"
14,7.00 to 9.00,O=C(C1CC1)N1CCC(Oc2ccc(-c3cnc4cccc(F)c4c3)cc2)CC1 [Example 30]
15,7.00 to 9.00,"O=C(C1CCC1)N1CCC(Oc2ccc(-c3cnc4cccc(F)c4c3)cc2)CC1 [Example 31, Cyclobutyl-{4-[4-(5-fluoroquinolin-3-yl)-phenoxy]-piperidin-1-yl}-methanone]"
16,6.00 to 7.00,"CCC(=O)N1CCC(Oc2ccc(-c3cnc4[nH]ccc4c3)cc2)CC1 [Example 32, 1-{4-[4-(1H-Pyrrolo[2,3-b]pyridin-5-yl)-phenoxy]-piperidin-1-yl}-propan-1-one]"
17,6.00 to 7.00,"O=C(C1CC1)N1CCC(Oc2ccc(-c3cnc4[nH]ccc4c3)cc2)CC1 [Example 33, Cyclopropyl-{4-[4-(1H-pyrrolo[2,3-b]pyridin-5-yl)-phenoxy]-piperidin-1-yl}-methanone]"
18,7.00 to 9.00,"COc1ccc2cc(-c3ccc(OC4CCN(C(=O)C5CC5)CC4)cc3)cnc2c1 [Example 34, Cyclopropyl-{4-[4-(7-methoxyquinolin-3-yl)-phenoxy]-piperidin-1-yl}-methanone]"
19,7.00 to 9.00,"CCC(=O)N1CCC(Oc2ccc(-c3cnc4cc(OC)ccc4c3)cc2)CC1 [Example 35, 1-{4-[4-(7-Methoxyquinolin-3-yl)-phenoxy]-piperidin-1-yl}-propan-1-one]"
20,7.00 to 9.00,CCC(=O)N1CCC(Oc2ccc(-c3ccc4cccnc4c3C)cc2)CC1 [Example 36]

row,pIC50,Structure (SMILES)
1,7.00 to 9.00,"Cc1c(-c2ccc(OC3CCN(C(=O)C4CC4)CC3)cc2)ccc2cccnc12 [Example 37, Cyclopropyl-{4-[4-(8-methylquinolin-7-yl)-phenoxy]-piperidin-1-yl}-methanone]"
2,7.00 to 9.00,Cc1c(-c2ccc(OC3CCN(C(=O)C4CCC4)CC3)cc2)ccc2cccnc12 [Example 38]
3,6.00 to 7.00,"O=C(C1CC1)N1CCC(Oc2ccc(-c3ccc4ccccc4n3)cc2)CC1 [Example 39, Cyclopropyl-[4-(4-quinolin-2-yl-phenoxy)-piperidin-1-yl]-methanone]"
4,6.00 to 7.00,"CCC(=O)N1CCC(Oc2ccc(-c3ccc4ccccc4n3)cc2)CC1 [Example 40, 1-[4-(4-Quinolin-2-yl-phenoxy)-piperidin-1-yl]-propan-1-one]"
5,6.00 to 7.00,"O=C(C1CCC1)N1CCC(Oc2ccc(-c3ccc4ccccc4n3)cc2)CC1 [Example 41, Cyclobutyl-[4-(4-quinolin-2-yl-phenoxy)-piperidin-1-yl]-methanone]"
6,7.00 to 9.00,"O=C([C@H]1CCCO1)N1CCC(Oc2ccc(-c3ccc4ccccc4n3)cc2)CC1 [Example 42, [4-(4-Quinolin-2-yl-phenoxy)-piperidin-1-yl]-(R)-tetrahydrofuran-2-yl-methanone]"
7,7.00 to 9.00,"CCC(=O)N1CCC(Oc2ccc(-c3cc4ccccc4cn3)cc2)CC1 [Example 43, 1-[4-(4-Isoquinolin-3-yl-phenoxy)-piperidin-1-yl]-propan-1-one]"
8,7.00 to 9.00,"O=C(C1CC1)N1CCC(Oc2ccc(-c3cc4ccccc4cn3)cc2)CC1 [Example 44, Cyclopropyl-[4-(4-isoquinolin-3-yl-phenoxy)-piperidin-1-yl]-methanone]"
9,7.00 to 9.00,"O=C(C1CCC1)N1CCC(Oc2ccc(-c3cc4ccccc4cn3)cc2)CC1 [Example 45, Cyclobutyl-[4-(4-isoquinolin-3-yl-phenoxy)-piperidin-1-yl]-methanone]"
10,7.00 to 9.00,"O=C([C@H]1CCCO1)N1CCC(Oc2ccc(-c3cc4ccccc4cn3)cc2)CC1 [Example 46, [4-(4-Isoquinolin-3-yl-phenoxy)-piperidin-1-yl]-(R)-tetrahydrofuran-2-yl-methanone]"
11,7.00 to 9.00,"CCC(=O)N1CCC(Oc2ccc(-c3cnc4ccccc4c3Cl)cc2)CC1 [Example 47, 1-{4-[4-(4-Chloroquinolin-3-yl)-phenoxy]-piperidin-1-yl}-propan-1-one]"
12,7.00 to 9.00,"O=C(C1CC1)N1CCC(Oc2ccc(-c3cnc4ccccc4c3Cl)cc2)CC1 [Example 48, {4-[4-(4-Chloroquinolin-3-yl)-phenoxy]-piperidin-1-yl}-cyclopropyl-methanone]"
13,7.00 to 9.00,"O=C(C1CCC1)N1CCC(Oc2ccc(-c3cnc4ccccc4c3Cl)cc2)CC1 [Example 49, {4-[4-(4-Chloroquinolin-3-yl)-phenoxy]-piperidin-1-yl}-cyclobutyl-methanone]"
14,6.00 to 7.00,"CCC(=O)N1CCC(Oc2ccc(-c3cnc4ccccc4c3OC)cc2)CC1 [Example 50, 1-{4-[4-(4-Methoxyquinolin-3-yl)-phenoxy]-piperidin-1-yl}-propan-1-one]"
15,5.00 to 6.00,"CCC(=O)N1CCC(Oc2ccc(-c3cnc4ccoc4c3)cc2)CC1 [Example 51, 1-[4-(4-Furo[3,2-b]pyridin-6-yl-phenoxy)-piperidin-1-yl]-propan-1-one]"
16,5.00 to 6.00,"O=C(C1CC1)N1CCC(Oc2ccc(-c3cnc4ccoc4c3)cc2)CC1 [Example 52, Cyclopropyl-[4-(4-furo[3,2-b]pyridin-6-yl-phenoxy)-piperidin-1-yl]-methanone]"
17,5.00 to 6.00,"CCC(=O)N1CCC(Oc2ccc(-c3cnc4ccc(OC)cc4c3)cc2)CC1 [Example 53, 1-{4-[4-(6-Methoxyquinolin-3-yl)-phenoxy]-piperidin-1-yl}-propan-1-one]"
18,6.00 to 7.00,"COc1ccc2ncc(-c3ccc(OC4CCN(C(=O)C5CC5)CC4)cc3)cc2c1 [Example 54, Cyclopropyl-{4-[4-(6-methoxyquinolin-3-yl)-phenoxy]-piperidin-1-yl}-methanone]"
19,5.00 to 6.00,"CCC(=O)N1CCC(Oc2ccc(-c3cnc4cc(OC)c(OC)cc4c3)cc2)CC1 [Example 55, 1-{4-[4-(6,7-Dimethoxyquinolin-3-yl)-phenoxy]-piperidin-1-yl}-propan-1-one]"
